Reference: publication PMC4762688 (Journal of nuclear medicine : official publication, Society …, 2015)
Entries after “also recorded” stand apart in the source; their conditions may differ. Bridge positions count the residues as written; N and C are the ends. Square brackets hold non-standard residues; d marks the D form. Peptide text beside a SMILES is read from it. * marks the point of attachment. X1 = O=C(O)CN1CCN(CC(=O)O)CCN(C(CCC(=O)NCc2ccc(CN*)cc2)C(=O)O)CC1; NODAGA = O=C(O)CN1CCN(CC(=O)O)CCN(C(CCC(=O)*)C(=O)O)CC1; Tyr(3-Cl) = N[C@@H](Cc1ccc(O)c(Cl)c1)C(=O)O; X3 = NCCN(CCN)CCC(=O)NCc1ccc(CN*)cc1; Hyp = O=C(O)[C@@H]1C[C@@H](O)CN1; X2 = NCCN(CCN)CCC(=O)*

What was measured:
immobilized fibrin = biological target: T1, immobilized fibrin (Homo sapiens, UniProt P02671+P02675+P02679); assay: Functional fibrin-binding assay: blood plasma incubated with immobilized fibrin; conditions: blood samples collected after injection
T1 sequence (P02671 36-629 limits assumed): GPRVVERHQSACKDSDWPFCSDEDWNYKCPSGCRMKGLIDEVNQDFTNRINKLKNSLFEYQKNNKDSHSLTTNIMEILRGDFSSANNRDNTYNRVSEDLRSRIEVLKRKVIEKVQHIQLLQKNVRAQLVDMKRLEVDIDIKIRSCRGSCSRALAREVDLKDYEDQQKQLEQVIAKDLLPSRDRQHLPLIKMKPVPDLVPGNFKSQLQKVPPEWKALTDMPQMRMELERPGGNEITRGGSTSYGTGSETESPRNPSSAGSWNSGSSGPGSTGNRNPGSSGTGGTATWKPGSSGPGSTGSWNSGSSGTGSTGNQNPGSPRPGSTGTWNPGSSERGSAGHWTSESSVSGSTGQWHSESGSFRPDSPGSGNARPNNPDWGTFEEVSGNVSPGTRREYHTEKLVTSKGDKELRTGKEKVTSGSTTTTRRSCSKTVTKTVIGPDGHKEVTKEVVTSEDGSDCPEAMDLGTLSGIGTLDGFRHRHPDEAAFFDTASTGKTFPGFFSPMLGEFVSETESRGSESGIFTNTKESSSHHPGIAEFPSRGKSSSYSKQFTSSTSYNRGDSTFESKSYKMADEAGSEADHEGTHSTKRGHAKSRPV
T1 sequence (P02675 45-491 limits assumed): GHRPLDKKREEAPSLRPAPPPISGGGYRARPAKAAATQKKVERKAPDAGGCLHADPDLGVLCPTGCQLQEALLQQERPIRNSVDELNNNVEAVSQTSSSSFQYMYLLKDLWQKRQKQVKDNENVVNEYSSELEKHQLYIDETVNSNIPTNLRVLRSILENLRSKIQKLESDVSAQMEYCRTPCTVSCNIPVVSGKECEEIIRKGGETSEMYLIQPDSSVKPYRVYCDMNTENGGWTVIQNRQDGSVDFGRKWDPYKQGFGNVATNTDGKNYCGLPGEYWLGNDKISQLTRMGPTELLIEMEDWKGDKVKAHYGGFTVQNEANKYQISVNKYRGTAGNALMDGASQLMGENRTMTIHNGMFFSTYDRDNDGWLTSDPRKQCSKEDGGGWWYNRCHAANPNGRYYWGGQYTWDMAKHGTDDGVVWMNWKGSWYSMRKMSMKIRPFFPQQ
T1 sequence (P02679 27-437 isoform P02679-2 limits assumed): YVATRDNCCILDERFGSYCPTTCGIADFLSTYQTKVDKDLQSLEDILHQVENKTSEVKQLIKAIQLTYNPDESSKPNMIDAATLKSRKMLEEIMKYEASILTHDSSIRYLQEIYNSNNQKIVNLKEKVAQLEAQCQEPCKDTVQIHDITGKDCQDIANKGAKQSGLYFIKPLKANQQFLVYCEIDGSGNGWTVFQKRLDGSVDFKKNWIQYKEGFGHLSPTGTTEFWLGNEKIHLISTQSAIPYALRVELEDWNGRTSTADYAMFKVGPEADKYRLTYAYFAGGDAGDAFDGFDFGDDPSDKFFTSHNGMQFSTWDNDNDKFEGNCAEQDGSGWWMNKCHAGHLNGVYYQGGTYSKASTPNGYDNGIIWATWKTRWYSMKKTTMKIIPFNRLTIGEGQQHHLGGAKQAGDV

[1] = test system: thrombus (mural carotid artery thrombosis); assay: PET / SPECT imaging in rat carotid crush injury model; format: in vivo
[2] = biological target: soluble fibrin fragment DD(E) (Homo sapiens, UniProt P02671+P02675+P02679, DEL433-453); format: binding; conditions: DD(E) assay
125I-labeled thrombus = assay: Triple-isotope SPECT/PET/CT imaging with 125I-labeled thrombus; format: in vivo, rat; conditions: ferric chloride model
[3] = test system: thrombus (mural carotid artery thrombosis); assay: Ex vivo biodistribution; conditions: crush model, biodistribution at 120 minutes
[4] = Blood clearance / pharmacokinetics from serial blood samples

| Compound | fibrin binding of blood samples (plasma incubated with immobilized fibrin) (immobilized fibrin) | thrombus detection on PET / SPECT images [1] | displacement of the fluorescent probe [2] | localization to 125I-labeled thrombus (SPECT/PET) (125I-labeled thrombus) | thrombus uptake [3] | half-life ([4]; male, Sprague-Dawley, rat, in vivo, iv) [min] | clearance of radioactivity from blood ([4]; serial blood draws 0 to 120 minutes p.i.) |
| --- | --- | --- | --- | --- | --- | --- | --- |
| CC[C@H](C)[C@H](NC(=O)[C@H](Cc1c[nH]cn1)NC(=O)[C@@H]1CSSC[C@@H](NC(=O)[C@H](Cc2c[nH]cn2)NC(=O)[C@H](Cc2ccccc2)NC(=O)CCC(C(=O)O)N2CCN(CC(=O)O)CCN(CC(=O)O)CC2)C(=O)N2C[C@H](O)C[C@H]2C(=O)N[C@@H](Cc2ccc(O)c(Cl)c2)C(=O)N[C@@H](CC(=O)O)C(=O)N[C@@H](CC(C)C)C(=O)N1)C(=O)N[C@@H](CC(C)C)C(=O)NCc1ccc(CNC(=O)CCC(C(=O)O)N2CCN(CC(=O)O)CCN(CC(=O)O)CC2)cc1 (stereo partly drawn) [^64Cu-D-Cys-FBP8, metal not drawn] ({NODAGA}-FH[dC][Hyp][Tyr(3-Cl)]DLCHIL-X1; disulfide 3-8) | does not bind to fibrin; also recorded: significantly lower binding | no uptake in the thrombus | no displacement | did not reveal significant uptake at the target site |  |  |  |
| CC[C@H](C)[C@H](NC(=O)[C@H](Cc1c[nH]cn1)NC(=O)[C@@H]1CSSC[C@H](NC(=O)[C@H](Cc2c[nH]cn2)NC(=O)[C@H](Cc2ccccc2)NC(=O)CCN(CCN)CCN)C(=O)N2C[C@H](O)C[C@H]2C(=O)N[C@@H](Cc2ccc(O)c(Cl)c2)C(=O)N[C@@H](CC(=O)O)C(=O)N[C@@H](CC(C)C)C(=O)N1)C(=O)N[C@@H](CC(C)C)C(=O)NCc1ccc(CNC(=O)CCN(CCN)CCN)cc1 [^99mTc-FBP16, metal not drawn] (X2-FHC[Hyp][Tyr(3-Cl)]DLCHIL-X3; disulfide 3-8) |  | ineffective |  |  | low target uptake | 5.9 ± 16.2 | residual radioactivity persisting in the blood even after 120 minutes |
